Measurements reported in patent US9211311B2, “Methods for the treatment of neurodegenerative disorders” (priority 2010, dated 2015).

Test system: male patients exhibiting PD-induced symptoms
Test: Motor portion of the Unified Parkinson's Disease Rating Scale (UPDRS) before and after intranasal oxytocin
Assay type: in vivo, human
Settings: 40 IU intranasal oxytocin; for UPDRS total score after oxytocin therapy: off medications, reassessed 45 minutes to one hour after dosing, items rated 0-4, lower = less severe
Procedure: The participants were in their “off” period, wherein they were taken off their current medications prior to oxytocin therapy. During the experiment, each participant was given 40 IU ([…]) of intranasal oxytocin. The synthetic form of oxytocin was administered by way of an inhaler, such as those used in nasal spray decongestants. Five pumps of the inhaler were dispensed into the left nostril of the participants; the participants were asked to inhale deeply through the nose. Five more pumps were dispensed into the right nostril of the participants and again the participants were asked to inhale deeply. This process was repeated so that, in total, the participants received forty pumps of the inhaler, twenty per nostril.
Immediately following oxytocin infusion, the participants were given a battery of physical and cognitive tests, lasting about fifteen to twenty minutes. These tests included the Motor portion of the Unified Parkinson's Disease Rating Scale (UPDRS) as well as a cognitive test used to establish the mental and emotional status of the participants. For each test, the participants were rated on a scale of zero to four, with four being the symptoms at its most severe state.
After administration of oxytocin, the participants were asked to wait for 45 minutes to one hour, wherein they passed the time by reading, conversing or simply relaxing. Subsequently, the motor skills of the participants were assessed again using the UPDRS. The administration of the UPDRS the first time was to quantifiably evaluate the patient's symptoms uninfluenced by oxytocin infusion, whereas the second administration of the UPDRS test served to quantifiably assess the motor condition of the patient under the influence of oxytocin.
The participants remained under direct supervision throughout the experiment to ensure their comfort and well-being. Once the experimental procedure was completed, the participants were able to leave the clinic and were asked to continue taking their normal medications. The participants were not in any way restricted in their activities for the rest of the day.

CC[C@H](C)[C@@H]1NC(=O)[C@H](Cc2ccc(O)cc2)NC(=O)[C@@H](N)CSSC[C@@H](C(=O)N2CCC[C@H]2C(=O)N[C@@H](CC(C)C)C(=O)NCC(N)=O)NC(=O)[C@H](CC(N)=O)NC(=O)[C@H](CCC(N)=O)NC1=O [oxytocin]
UPDRS total score after oxytocin therapy (participant 1, initial total score 24): 17
decrease in UPDRS total score after oxytocin therapy (participant 1, versus initial total score 24): 30%
UPDRS total score after oxytocin therapy (participant 2, initial total score 37.5): 34.5
decrease in UPDRS total score after oxytocin therapy (participant 2, versus initial total score 37.5): 8%
UPDRS total score after oxytocin therapy (participant 3, initial total score 17.5): 9.5
decrease in UPDRS total score after oxytocin therapy (participant 3, versus initial total score 17.5): 50%
lasting effects due to the administration of oxytocin (three male PD patients, observed under supervision throughout the experiment): not any lasting effects apparent
